Patent US20240166658A1, “PORPHYRIN DERIVATIVES AND USES THEREOF” (University of Tasmania, priority 2021, published 2024)

Tests used:
[1] = UV-Vis host-guest titration, association constant; format: binding; details: host (9) in dichloromethane; triplicate, TBA salt and acid; Bindfit
Experimental: (§1) Path length of the quartz cell was 1 cm. For UV-vis titrations, a stock solution of host was prepared (2.2×10^−3 M) in dichloromethane (DCM) and serially diluted to the required concentrations. Working solutions of tetrabutylammonium (TBA) anion salts or guest molecules were prepared in the same manner Host−guest titrations used solutions of guest prepared in the working concentration of host solution, according to the procedure of Thordarson, 2011.
(§2) UV-vis spectroscopic host−guest titrations were performed in accordance with the methodologies of Thordarson, 2011. Solutions of host in dichloromethane were prepared. Solutions of guest were then prepared in the host solution. Aliquots of guest in host solution were added to host solution and sequentially analysed until a known molar equivalent of guest was added. The amount of guest added per aliquot was ascertained by a preliminary screening experiment; strong association constants required smaller molar equivalents so more information could be collected. By way of example, host (9) responded to 0.1 molar equivalent of PFBA strongly, so an addition of 1 molar equivalent of PFBA would result in a loss of information. The inverse is true for weaker binding interactions. […]
(§3) A host solution of host (9) in dichloromethane was monitored using UV-Vis analysis as 0.5-10 equivalents of each PFAS was added. […]

[2] = UV-Vis host-guest titration, association constant; format: binding; details: host (9) in dichloromethane; triplicate, TBA salt and acid; Bindfit; remark: listed apart in the source
Experimental: as §1, §2, §3

[3] = Colorimetric matching of a PFCA sample, organic; details: CIE76
Experimental: To probe the sensitivity of this technique visually, a colour chart based on the response of host (12) to known concentrations of PFOA was tested against another PFCA. The PFCA was chosen to be PFHxA, as PFOA was used for the calibration process. Samples of PFHxA (4 ppm) were prepared and combined with host (12). The average colour from triplicate experiments was compared to a calibration chart. The RGB values for host (12) were collected at six concentrations of PFOA. To make a direct comparison to the 4 ppm PFHxA sample, a colour chart was generated by fitting four colour points between the measured values for 0 and 5 ppm of PFOA. The generated RGB value for the 4 ppm PFOA was then compared to the measured RGB value for the 4 ppm PFHxA sample. […] The 3 and 5 ppm PFOA colours had ΔE values of 10.3 and 9.5 respectively, making the 4 ppm colour the most suitable match.

[4] = Colorimetric matching of mixed PFCA samples, high concentration
From the text: The present inventors investigated the colorimetric responses for host (12) with “high” concentrations of PFCA (where [host]<[guest]), and “low” concentrations of PFCA (where [host]>[guest]). Generally, RGB response values will increase with increasing concentrations of PFCA until the host has been saturated; beyond the saturation limit, RGB response values are similar. When there was an excess of guest, the response values could only be used as a threshold indication for PFCA concentrations.
(§4) RGB response curves were established by combining solutions of host (12) (5.01×10^−6 M) with solutions of PFOA (0-16 ppm, 3.86×10^−5 M) in dichloromethane. […] Thus, when establishing a calibration curve, the relative proportion of free host to host−PFCA complex limiting the variability of colour response must be considered for the application.
For the “high” PFCA concentration experiment, the PFOA generated calibration curve (y=0.0401 ln(x)+0.2366, R^2=0.9677) (FIG. 17) begins to level out at ca. 2 ppm. Above that concentration, the RGB response values are difficult to differentiate.

[5] = RGB response, low PFCA concentration
From the text: as §4
In the “low” PFCA concentration experiment, the RGB response values had the greatest rate of change from 0-40 ppb PFOA and appeared to level out between 40-80 ppb PFOA. In that instance, the regression was fit for a host : guest ratio of 0-0.8. To probe the sensor's response to a mixture of PFCAs, samples containing combinations of PFHxA, PFHpA, and PFDA in dichloromethane (7-28 ppb) were prepared and the RGB responses were collected. The PFCA concentrations for the samples were predicted using the PFOA regression (y=0.0591 ln(x)+0.037, R^2=0.9771).
The RGB response values can differentiate between 0 and 1 ppb PFOA numerically on the regression, but to determine the visual detectability, the ΔE values can be calculated. […] Samples from 0-5 ppb PFOA gave a colour change that could be determined as different from the starting host solution (ΔE=4-8) (Table 11). […] Thus, a conservative visual limit of detection of 10 ppb PFCA may be considered for an untrained observer making threshold analysis.

Compound | K value (averaged association constant Ka) [1] | K value (averaged association constant Ka) [2] | ΔE, PFOA chart colour vs 4 ppm PFHxA sample ([3]; 3 ppm PFOA colour) | ΔE, PFOA chart colour vs 4 ppm PFHxA sample ([3]; 4 ppm PFOA colour) | ΔE, PFOA chart colour vs 4 ppm PFHxA sample ([3]; 5 ppm PFOA colour) | ΔE ([4]; 15 vs 3 ppm PFCA sample) | ΔE ([4]; 15 vs 12 ppm PFCA sample) | [PFCA]predicted from PFOA regression ([4]; sample measured 0.20 ppm) [ppm] | ΔE vs host solution ([5]; 1.3 ppb PFOA) | conservative visual limit of detection ([5]; PFCA, untrained observer, threshold analysis) [ppb] | ΔE (Host − PFCA) ([5]; PFOA 1 ppb) | ΔE (Host − PFCA) ([5]; PFOA 3 ppb) | ΔE (Host − PFCA) ([5]; PFOA 5 ppb) | ΔE (Host − PFCA) ([5]; PFOA 10 ppb) | ΔE (Host − PFCA) ([5]; PFOA 21 ppb) | ΔE (Host − PFCA) ([5]; PFOA 41 ppb) | ΔE (Host − PFCA) ([5]; PFOA 83 ppb) | ΔE vs starting host solution ([5]; samples from 0-5 ppb PFOA)
O=C(Nc1ccccc1-c1c2nc(c(-c3ccccc3NC(=O)C(F)(F)C(F)(F)C(F)(F)C(F)(F)C(F)(F)C(F)(F)C(F)(F)F)c3ccc([nH]3)c(-c3ccccc3NC(=O)C(F)(F)C(F)(F)C(F)(F)C(F)(F)C(F)(F)C(F)(F)C(F)(F)F)c3nc(c(-c4ccccc4NC(=O)C(F)(F)C(F)(F)C(F)(F)C(F)(F)C(F)(F)C(F)(F)C(F)(F)F)c4ccc1[nH]4)C=C3)C=C2)C(F)(F)C(F)(F)C(F)(F)C(F)(F)C(F)(F)C(F)(F)C(F)(F)F [host (9), α,α,α,α-5,10,15,20-tetrakis(2-(pentadecafluorooctanoylamino)phenyl)porphyrin] | 20459 | 58920 | – | – | – | – | – | – | – | – | – | – | – | – | – | – | – | –
O=C(Nc1ccccc1-c1c2nc(c(-c3ccccc3NC(=O)C(F)(F)C(F)(F)C(F)(F)C(F)(F)C(F)(F)C(F)(F)C(F)(F)C(F)(F)C(F)(F)C(F)(F)C(F)(F)F)c3ccc([nH]3)c(-c3ccccc3NC(=O)C(F)(F)C(F)(F)C(F)(F)C(F)(F)C(F)(F)C(F)(F)C(F)(F)C(F)(F)C(F)(F)C(F)(F)C(F)(F)F)c3nc(c(-c4ccccc4NC(=O)C(F)(F)C(F)(F)C(F)(F)C(F)(F)C(F)(F)C(F)(F)C(F)(F)C(F)(F)C(F)(F)C(F)(F)C(F)(F)F)c4ccc1[nH]4)C=C3)C=C2)C(F)(F)C(F)(F)C(F)(F)C(F)(F)C(F)(F)C(F)(F)C(F)(F)C(F)(F)C(F)(F)C(F)(F)C(F)(F)F [host (12), α,α,α,α-5,10,15,20-tetrakis(2-(tricosafluorododecanoylamino)phenyl) porphyrin] | – | – | 10.3 | 7.3 | 9.5 | 10 | 2 | 0.18 | ≥ 2 | 10 | 4 | 6 | 8 | 11 | 12 | 15 | 17 | 4-8
